Entries after “also recorded” stand apart in the source; their conditions may differ.
Legend:
[1] = test system: neutrophil-like cells (CD11b- and Ly6G-positive cells); assay: Flow cytometry of neutrophils / neutrophil-like cells in ear tumor microenvironment; type: in vivo, C57BL/6 mice
From the text: (§1) FIG. 3A-D. Compound 1 specifically targets macrophages, but not neutrophils. (A, B) Macrophages, defined by the CD11b+/F4/80+ cell populations in flow analysis, were presented in either percentage or absolute numbers in ear TME after only two daily doses of Compound 1 (dosages are indicated in the figure, * p<05, ** p<01 vs vehicle control). (C, D) Single cell suspension from the same tissues as in (A) were stained with antibodies for CD11b, F4/80, CCR2, Ly6G, and Ly6C. Cells gated on CD11b were further analyzed to differentiate the subpopulations. Solid circles indicate the cells which are targeted by Compound 1. Dotted circles circles indicate the cells which are not blocked by Compound 1.
(§2) FIG. 4A-D. Enhanced inflammation is associated with CCR2 antagonism by Compound 1 in the tumor microenvironment. (A, B) Ear tissues were collected from mice treated by Compound 1 (60 mg/kg) or vehicle on day 7. Representative images for HE sections and IHC staining with anti-F4/80 were shown for the ear tissues from Compound 1 and vehicle treated group. (C, D) Ears from day 7 were also analyzed by flow cytometry to quantify the numbers of the two major myeloid subpopulations in TME with antibodies for CD11b, F4/80 and Ly6G.
(§3) Flow cytometry for mouse ear tissues, lymph nodes, and spleens. Anti-mouse CD45 (clone 30-F11), CD11b (M1/70), F4/80 (BM8), Ly6G (1A8), Ly6C (HK1.4), IFN-γ (XMG1.2) and CD8 (5H10-1) Abs were purchased from BioLegend (San Diego, CA). Ears or tumor tissues were digested to obtain skin cell suspensions as described, Lymph nodes or spleens were directly minced and filtered through cell strainers with 100 μm micron pores (Thermo Fisher Scientific, Waltham, MA). Red blood cells in the spleen samples were removed by RBC lysis buffer (BioLegend). Intracellular staining was done after incubating cells for 4 h with brefeldin A and PMA/ionomycin as described. Flow cytometry was performed using an Acuri C6 or LSR II (BD Biosciences, San Jose, CA) in conjunction with FlowJo analysis software (Tree Star, San Carlos, CA).

[2] = test system: MBL2 tumors; assay: MBL2/DNFB mouse ear skin T cell lymphoma model: tumor growth (ear thickness, ear weight); type: in vivo, C57BL/6 mice
Method: Animals and cell lines. Female C57BL/6 mice (6-8 weeks old) were purchased from Charles River (Hollister, CA) and housed in animal facilities at University of California Davis (UCDAVIS), Sacramento, CA All animal experiments were conducted in accordance with the guidelines and approval of the Institutional Animal Care and Usage Committee at UCDAVIS. The MBL2 cell line is an established cell line derived from Moloney MuLV-induced T-cell lymphoma in C57BL/6 mice, in which the gag gene was deleted from the genome in order to lower virus-dependent immunogenicity. MBL2 cells were cultured in DMEM (Invitrogen, Carlsbad, CA) with 10% heat-inactivated FBS.
Establishment of MBL2 tumors in mice. The method of establishing mouse ear skin tumors was previously described, Briefly, PBS-washed MBL2 cells (4×10^5 in 20 μl PBS) were injected into the dermal space under the central dorsal surface of the ears and above the cartilage plane using a 28 g needle. Mice were then topically treated one time with DNFB (1-Fluoro-2, 4-dinitrobenzene, 0.5% in a vehicle consisting of 4:1 (v/v) acetone and olive oil, 10 μl/ear) (Sigma, St. Louis, CA) on dorsal ear skins. Tumor growth was assessed for maximum ear thickness using a digital caliper, or by weight for the whole tumor-bearing ears removed from ear baseline. The endpoint determination is based on the allowed maximal ear tumor size, or local erosion and bleeding, which usually occurred within two weeks after implantation.
Tumor treatment by CCR2 antagonist and/or anti-PD1. Small molecule compounds, Compound 1, either in a high concentration (6 mg/ml) or a low concentration (2 mg/ml), as well as vehicle control were all provided by ChemoCentryx (Mountain View, CA) in a lab-ready formulation. In therapeutic application, oral administration through gavage of Compound 1 or vehicle started on the same day of MBL2 cell inoculation, usually two hours apart. Compound 1 was administrated once a day (60 mg/kg for high dose or 20 mg/kg for low dose) for up to two weeks following tumor implantation. […]

[3] = test system: cytokines and biomarkers produced from the TME; assay: Quantitative RT-PCR of cytokines and biomarkers in ear tissues; type: in vivo, C57BL/6 mice
Method: FIG. 5A-C. Compound 1 treatment altered the expression of cytokines and biomarkers produced from the TME. Quantitative RT-PCR was performed for the ear tissues collected on day 7. Genes that are involved in cancer inflammation and immunity crosstalk are selectively detected. Comparative expression is performed between the Compound 1 and vehicle treated groups. […] Gene expression values are normalized to endogenous expression of GAPDH (* p<05, ** p<0.01; n=3 mice per group).
FIG. 6. Compound 1 treatment altered the expression of cytokines and biomarkers produced from the TME. Quantitative RT-PCR was performed for the ear tissues collected on day 7. Genes that are involved in immune suppression and anti-inflammation are selectively detected. Comparative expression is performed between the Compound 1 and vehicle treated groups. Gene expression values are normalized to endogenous expression of GAPDH (n=3 mice per group).
Quantitative real-time PCR. RNA (<2 μg per sample) was converted into cDNA with the high-capacity first-strand cDNA Kit (Qiagen). Real-time PCR was performed on a StepOne Plus Real-time PCR system (Applied Biosystem, Carlsbad, CA). QPCR primer pairs were purchased from Integrated DNA technologies (Coralville, Iowa).

[4] = test system: F4/80+ macrophages; assay: IHC staining of ear tissue with anti-F4/80; type: in vivo, C57BL/6 mice; settings: day 7, 60 mg/kg oral daily
Method: as §2
(§4) H&E and Histoimmunochemistry. After mouse ear tumors were surgically removed at the ear base, the ear sample was cut into two parts along the long axis and placed in RNA later for RNA extraction or into 10% formalin for hematoxylin and eosin (H&E) staining or immunohistochemical staining with purified mouse antibodies (anti-CD8 and anti-F4/80 from Biolegend, San Diego, CA).

[5] = test system: CD11b+/F4/80+ macrophages; assay: Flow cytometry of macrophages in ear tumor microenvironment; type: in vivo, C57BL/6 mice
From the text: as §1, §3

[6] = test system: MBL2 tumors; assay: Cervical draining lymph node size (lymph node metastasis) in DNFB-MBL2 model; type: in vivo, C57BL/6 mice; settings: day 15, Compound 1 alone
Method: (§5) FIG. 7A-E. CD8 T cells are compulsory in CCR2 antagonist-mediated anti-tumor immunity. (A) Tumor tissues were collected from mice euthanized after two weeks of treatment. Groups are as indicated in the graph. IHC staining with CD8a antibody was performed. The numbers of CD8 positive T cells were counted by taking three random images of HPF (high power field) in each section from all four mice per group. (B) Scheme for neutralizing CD8 T cells along with Compound 1 treatment. Neutralizing anti-CD8 or rat-IgG2a was administrated via intraperitoneal injection one day before MBL2 tumor inoculation followed by a second dose after 7 days. Tumor formation was examined in two weeks after the treatment with Compound 1 or vehicle. (C) Mice treated in experiment (B) were euthanized on day 3 for flow analysis of the cervical draining lymph nodes in order to determine the effect of CD8 depletion (three mice per group). (D) Mice were euthanized on day 15 after the two weeks of Compound 1/vehicle treatment with or without CD8 T cell neutralization. Ear thickness is measured for presenting tumor size. (E) Draining lymph nodes are also measured for the lymph node metastasis (n=4).
Next, we administrated neutralizing CD8 antibodies by IP injection concurrently with the Compound 1 treatment (FIG. 7B). […]

[7] = H&E histology and appearance of tumor-bearing ears; type: in vivo, C57BL/6 mice; settings: day 7, 60 mg/kg
Method: as §2, §4

[8] = test system: CD8+ T cells; assay: IHC staining of tumor tissue with CD8a antibody; type: in vivo, C57BL/6 mice; settings: two weeks of treatment, dose-dependent, vs untreated and vehicle
Method: as §5
H&E and Histoimmunochemistry. […]

[9] = Body weight and tolerability after daily oral dosing; type: in vivo, mice; settings: 20 or 60 mg/kg daily oral
Method: (§6) (A) Mice were orally dosed for Compound 1 daily at a lower concentration (20 mg/kg per day) or a higher concentration (60 mg/kg per day) for consecutive ten days. Plasma concentration of Compound 1 was detected by chemistry analyst 24 hours after the last dosing. (B) The same groups of mice in panel (A) were recorded for body weight before the first and after the last oral administration (n=4 per group). Statistical analysis is performed by two-way ANOVA in GraphPad PRISM (GraphPad Software, San Diego, CA).
(§7) Compound 1 is an orally-bioavailable CCR2 antagonist. […] For the experimental treatment regimen, we administered Compound 1 daily via oral gavage, starting on the same day of tumor implantation (FIG. 1a). […] Thus, Compound 1 blocked tumor growth in an inflammation and macrophages dependent model of T cell lymphoma.

[10] = Plasma concentration of Compound 1 after daily oral dosing; type: in vivo, mice
Method: as §6, §7

[11] = test system: pancreatic ductal adenocarcinoma (PDAC); settings: orally dosed, phase 1b study; cited from earlier work
[12] = day 15, 20 or 60 mg/kg oral daily, vs untreated or vehicle
[13] = day 7, vs vehicle, normalized to GAPDH
[14] = ear tumors, treated two days after tumor implantation, 20 or 60 mg/kg oral

C[C@H]1CN([C@@H]2CC[C@@](C(=O)N3COc4c(cc(C(F)(F)F)cc4C(F)(F)F)C3)(C3CC3)OC2)CC[C@@H]1c1cccc(C(=O)O)c1 [Compound 1]
accumulation of neutrophils in the TME ([1]; after two daily doses): not blocked | relative abundance of neutrophils in the TME ([1]; after two daily doses): increased | numbers of neutrophils / neutrophil-like cells in the TME ([1]; one week (day 7) of treatment, 60 mg/kg oral daily, vs vehicle, 60 mg/kg): significantly larger numbers of neutrophils; also recorded: significant increase | ear thickness [2, 12]: significantly reduced | ear weight [2, 12]: significantly reduced | tumor growth / tumor size ([2]; single agent, two weeks of treatment, vs vehicle/control): smaller and sometimes nearly eradicated; also recorded: visible reduction in tumor growth; also recorded: inhibits tumor growth; also recorded: effectively delay the tumor growth, but was unable to eliminate the tumors | IL-10 expression in ears ([3]; day 7, vs controls): similarly expressed | TGF-beta expression in ears ([3]; day 7, vs controls): similarly expressed | CCL2 expression in the TME ([3]; day 7, vs vehicle): Upregulation | CCL7 expression in the TME ([3]; day 7, vs vehicle): Upregulation | CXCL1/2 expression in the TME ([3]; day 7, vs vehicle): noticeably increased | IL-1beta expression in ears ([3]; day 7, vs vehicle): upregulated to variable extents | IL-6 expression in ears ([3]; day 7, vs vehicle): upregulated to variable extents | IL-12 expression in ears ([3]; day 7, vs vehicle): found to increase | IL-17a expression in ears ([3]; day 7, vs vehicle): upregulated to variable extents | S100A8/9 expression in the TME ([3]; day 7, vs vehicle): noticeably increased | granzyme B expression in ears ([3]; day 7, vs vehicle): consistent upregulation | CXCL10 mRNA level in ears [3, 13]: significantly increased | CXCL11 mRNA level in ears [3, 13]: significantly increased | IFN-γ mRNA level in ears [3, 13]: significantly increased | macrophages in the TME by IHC anti-F4/80 [4]: largely absent | CD11b+/F4/80+ macrophages, absolute numbers in whole ears [5, 14]: significantly decreased | CD11b+/F4/80+ macrophages, percentage values of live cells [5, 14]: significantly decreased | macrophages in the skin (flow cytometry) ([5]; oral administration for two days after tumor initiation, vehicle 17.7%): 2.78 % of total leukocytes | cervical draining lymph node size [6]: reduction of cervical LN size | tumor cell necrosis [7]: results in tumor cell necrosis | numbers of CD8+ T cells in the tumor/TME (IHC) [8]: significantly larger numbers of CD8+ T cells; also recorded: markedly increased | tolerability / side effects [9]: well tolerated; also recorded: without side effects | weight changes ([9]; ten days): ≤ 20% | plasma concentration ([10]; 20 or 60 mg/kg daily oral gavage for ten days, 24 hours after last dosing): correlated well to the feeding doses; also recorded: dose-dependently absorptive | oral bioavailability ([10]; oral): orally-bioavailable

O=C(NCC(=O)N1CC[C@H](N[C@H]2CC[C@@](O)(c3ccc(-c4ncccn4)cn3)CC2)C1)c1cccc(C(F)(F)F)c1 [PF-04136309]
TAM infiltration [11]: reduction in TAM infiltration | anti-tumor immune response [11]: endogenous anti-tumor immune response

— US11986466B2, “Methods of treating solid tumors with CCR2 antagonists” (CHEMOCENTRYX, INC., priority 2018, dated 2024)
